Source: US9968650B2, “Modified viral structural protein with antiviral activity” (priority 2011, dated 2018)
Entries after “also recorded” stand apart in the source; their conditions may differ.

Assays:
Cp149 dimer interface = target: T1, Cp149 dimer interface (Hepatitis B virus genotype D subtype adw, UniProt P03147); conditions: cited from earlier work
T1 construct: (Cp149), which is the N-terminal first 149 residues of the core protein

HIV-1 CA = HIV-1 CA (Human immunodeficiency virus type 1 group M subtype B, UniProt P12493); conditions: cited from earlier work
HIV-1 NL4-3 = conditions: cited from earlier work
Gag = Gag (Human immunodeficiency virus type 1 group M subtype B, UniProt P12493); conditions: cited from earlier work
HBV capsid assembly [1] = assay: Size exclusion chromatography of equilibrium capsid assembly and calculation of thermodynamic parameters; assay type: biochemical, Hepatitis B virus (HBV); conditions: 100 mM NaCl, 23° C.; for pseudo-critical concentration: 72 h equilibration
Method: (§1) The adyw strain of HBV Cp149-pET11c (Genbank accession no. J02202.1) construct was mutated to Cp149-V124W (GTG to TGG) with the QuikChange mutagenesis kit (Stratagene). […] V124W purification was performed as previously described for HBV Cp149-WT purification. Based on the biochemical studies in this paper, in the re-assembly step, using 50 mM NaCl instead of 500 mM NaCl to induce re-assembly yielded more capsid with slightly more aggressive assembly activity. Protein concentration was determined using an extinction coefficient of 70,025 M^−1 cm^−1 per V124W dimer at 280 nm, calculated by ExPASy Proteomics Server based on the protein sequence and assuming one disulfide bond per dimer WT dimer was purified exactly as previously described. The extinction coefficient of WT dimer is 60,900 M^−1 cm^−1 at 280 nm. Before assembly studies, frozen protein stock was dialyzed into 50 mM HEPES, pH 7.5 for at least 2×2 h at 4° C. The standard assembly buffer was 50 mM HEPES, pH 7.5 at 23° C. with varied NaCl concentrations. Protein stock was treated with 1% to 5% β-mercaptoethanol for 20 min before assembly.
WT and V124W at varied concentrations (WT, 40 to 80 μM; V124W, 2.5 to 30 μM), were induced to assemble at 100 mM NaCl to equilibration for 72 h or longer at 23° C. […] Capsid and dimer concentrations in assembly reactions were determined by size exclusion chromatography (SEC) through a 21 ml Superose 6 column. ΔGcontact and KD,apparent were calculated as previously described. KD,apparent was the average of the equilibrium dimer concentrations which were nearly constant.

core protein = assay: Western blot analysis of core protein level in transfected Huh7 cells; assay type: cell-based, Hepatitis B virus (HBV); conditions: normalized to GFP, WT = 100%, SD in parenthesis
From the text: (§2) All HBV plasmids used in cell culture experiments were derived from subtype ayw (Genbank accession no. V01460). These plasmids express pgRNA under the control of the cytomegalovirus (CMV) immediate early promoter. […] Plasmids C^WT or C^V124W express core protein but not P or envelope proteins and lack a functional encapsidation signal, GFP protein was expressed from a separate plasmid (provided by Bill Sugden, UW-Madison). Details of construction and sequence of any plasmid will be provided upon request.
The human hepatoma cell line Huh7 was used to study HBV replication. Cells were grown in 60 mm plates at 37° C. in 5% CO2, in DMEM/F12 medium supplemented with 5% FBS (Invitrogen, Grand Island, N.Y.). […]
A fraction of cytoplasmic lysate was used to run a 15% SDS-PAGE, followed by transfer of proteins to PVDF-FL (Millipore®, Billerica, Mass.) in methanol transfer buffer (details of SDS-PAGE and transfer solutions provided upon request). […] Core protein was detected using a rabbit α-core antibody (Austral Biologicals®, San Ramon, Calif.) at a dilution of 1:500, and a goat α-rabbit IRDye800CW antibody (Li-Cor®) at a dilution of 1:10,000. GFP was detected using a mouse α-GFP antibody (Santa Cruz® Biotechnology, San Cruz, Calif.) at a dilution of 1:500, and a goat α-mouse IRDye680LT antibody (Li-Cor®) at a dilution of 1:10,000. […] Core levels were normalized to GFP levels for quantitation. […]

HBV capsid assembly [2] = assay: Extent of core protein assembly without HAP12 by size exclusion chromatography; assay type: biochemical, Hepatitis B virus (HBV); conditions: 10 μM protein, 50 mM NaCl, 23° C., without HAP12
Method: as §1
(§3) To test for resistance to HAP molecules, 10 μM protein with varied HAP12 concentrations (2.5 to 60 μM) was induced to assemble at 50 mM NaCl. Before adding 10× NaCl, protein was incubated with HAP12 at 23° C. for 20 min. Each reaction was incubated at 23° C. for 24 h to equilibrate. Under these conditions, 24 h was long enough to allow reactions to reach equilibrium. Capsid, abnormal structures and dimer concentrations were determined by SEC as described above.

HBV capsid assembly [3] = target: T2, HBV capsid assembly (Hepatitis B virus genotype D subtype adw, UniProt P03147); assay: as above; assay type: biochemical
T2 construct: (Cp149), which is the N-terminal first 149 residues of the core protein; made in house; host or cells: E. coli BL21 (DE3) (printed for V124W; WT 'as previously described')
Method: as §1, §3

HBV replication = assay: Southern blot analysis of encapsidated HBV DNA in transfected Huh7 cells; assay type: cell-based, Hepatitis B virus (HBV); conditions: WT normalized to 100%, SD in parenthesis, * values at limit of detection
From the text: as §2
The human hepatoma cell line Huh7 was used to study HBV replication. Cells were grown in 60 mm plates at 37° C. in 5% CO2, in DMEM/F12 medium supplemented with 5% FBS (Invitrogen, Grand Island, N.Y.). Cells were approximately 75% confluent or greater at time of transfection. DNA transfections were performed using calcium phosphate precipitation. For experiments using WT^P+C+ and V124W^P+C+, 5 μg of total plasmid mass was transfected. Each transfection experiments were repeated three times independently. For V124W titration experiment, 2 μg WT^P+C+ and varied C^V124W (0 to 8 μg) were used. A filler plasmid pCMV-Sport6 was used to keep the total plasmid mass at 10 μg. 0.125 μg of the GFP expression plasmid was used in every transfection. Typically, medium containing the calcium phosphate precipitate was removed after 16 hours, fresh medium added, and the cultures were grown for an additional 96 hours.
Nucleic acid from cytoplasmic capsids was isolated as described previously. Briefly, cells were lysed in a solution containing 50 mM Tris, 1 mM EDTA, 0.2% NP40, pH 8.0. Nuclei were pelleted via centrifugation and supernatant was collected. A fraction of this lysate was used for detection of core protein and GFP. The remainder of the cytoplasmic lysate was treated with 45 units of micrococcal nuclease (Worthington Biochemicals, Lakewood, N.J.) in the presence of 2 mM CaCl2 to digest plasmid DNA and unencapsidated pgRNA, followed by treatment with 0.4% SDS and 0.4 mg/ml Pronase® (Roche, Nutley, N.J.) to digest nucleocapsids and P protein. Encapsidated nucleic acids were extracted with 1:1 phenokchloroform, precipitated with ethanol and NaCl, and re-suspended in 30 μl of a solution of 10 mM Tris, 0.1 mM EDTA, pH 8.0.
An aliquot of viral DNA was electrophoresed through a 1.25% agarose gel. DNA was denatured and neutralized in situ in 0.5 N NaOH/1.5 M NaCl and 1 M Tris/1.5 M NaCl, respectively, followed by passive transfer to Hybond-N (GE® Lifesciences, Piscataway, N.J.) in 10×SSC. Viral DNA was detected on the membrane using an equimolar pool of oligonucleotides that detected (−) DNA. […] Levels of DNA were measured using the software ImageQuant® 5.2 (Molecular Dynamics). DNA levels were normalized to GFP levels as determined previously by western blot. […]

HBV capsid assembly [4] = assay: 90° light scattering assembly kinetics of core protein alone; assay type: biochemical, Hepatitis B virus (HBV); conditions: 10 μM protein, 50 mM NaCl, first 800 seconds
Method: Light scattering was monitored at 90° using 400 inn excitation and emission wavelength with a Photon Technology International fluorometer for at least 800 seconds at 23° C. 10 μM protein (WT or V124W) was incubated with or without 20 μM HAP12 for 20 min prior to adding equal volume of 2× NaCl to a final concentration of 50 mM NaCl. Each sample was repeated 3-4 times independently.
90° Light scattering is a well-established method to monitor the virus assembly kinetics because of the significant difference between the size of the capsid and the dimer. HBV core protein assembly is induced by increasing the ionic strength in vitro, which is achieved by adding NaCl to the reaction system. Higher ionic strength leads to assembly faster and further due to the stronger association energy between dimers.

T2 sequence (P03147 1-149): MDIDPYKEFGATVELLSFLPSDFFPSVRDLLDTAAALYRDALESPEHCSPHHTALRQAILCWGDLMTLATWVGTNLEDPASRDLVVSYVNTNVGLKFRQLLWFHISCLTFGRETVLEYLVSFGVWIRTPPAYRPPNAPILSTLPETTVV
T1 sequence (P03147 1-149): as above

COC(=O)C1=C(C)NC(c2ncc(F)cc2F)=N[C@H]1c1ccc(F)cc1Cl [BAY41-4109]
HAP stoichiometry necessary to generate aberrant structures (Cp149 dimer interface; pure BAY41-4109): greater than one HAP per two dimers

Cc1[nH]c2ccccc2c1CC(=O)N[C@@H](Cc1ccccc1)C(=O)N(C)c1ccccc1 [PF-3450074]
rate of CA multimerization (HIV-1 CA): significant increase | antiviral activity against HIV (HIV-1 NL4-3): inhibit HIV replication | Gag association (Gag): does not inhibit

WT: wild type HBV core protein; Cp149 is the N-terminal 149-residue assembly domain, used as control
ΔGcontact (HBV capsid assembly [1]): -2.74 ± 0.04 kcal/mol | pseudo-critical concentration (HBV capsid assembly [1]): about 43 μM | pseudo-critical concentration (HBV capsid assembly [1]; listed as wild type Cp149): 43.6 ± 5.1 µM | ΔGcontact (HBV capsid assembly [1]; listed as wild type Cp149): -2.74 ± 0.04 kcal/mol | Kd (HBV capsid assembly [1]; read-out: KD, apparent): 43.3 ± 4.97 µM | core protein (core protein): 100% (39%) | extent of assembly (dimers assembled into capsids) (HBV capsid assembly [2]): no assembly | extent of assembly (dimers assembled into capsids) (HBV capsid assembly [2]; listed as wild type Cp149): does not assemble at all; also recorded: no assembly | capsid formation at 150 mM NaCl (HBV capsid assembly [3]; 10 μM protein, 150 mM NaCl (data not shown)): did not observe any capsid formation | concentration needed to see any assembly (HBV capsid assembly [3]; under similar conditions (NaCl-induced assembly, FIG. 10)): 45 µM | association energy at the dimer interface (Cp149 dimer interface; 150 mM NaCl 37° C., without HAP): -3.87 kcal/mol | dlDNA (HBV replication): 100% (27%) | ssDNA (HBV replication): 100% (19%) | total DNA (HBV replication): 100% (19%) | rcDNA (HBV replication; three independent transfections): 100% (46%) | assembly kinetics without HAP12 (in words) (HBV capsid assembly [4]): did not assemble
